Measured values reported in patent US20130295143A1, “ELECTROPROCESSING OF ACTIVE PHARMACEUTICAL INGREDIENTS” (Massachusetts Institute of Technology, priority 2012, published 2013).
“Also recorded” adds a separate entry of the source.

Assays:
Assay type in all cases: physicochemical
[1] = Drug loading in electrospun fibers by UV-vis spectroscopy; details: 1:2 API:PVP, nominal API loading 33 wt %; average of three measurements
Procedure: In order to determine the actual drug loading in the electrospun fibers, samples were analyzed with a Perkin-Elmer (Waltham, Mass.) double-beam Lambda25 UV-vis spectrophotometer. A standard curve was prepared for ABZ in methanol for concentrations from 0.005 mg/mL to 0.05 mg/mL at an absorbance of 295 nm and for FAM in methanol for concentrations from 0.002 mg/mL to 0.035 mg/mL at an absorbance of 286 nm. […] A known mass of electrospun mat was dissolved in a known volume of methanol and diluted such that the expected concentration of API fell within the concentration ranges covered by the standard curves. From the resulting measured concentration, the mass of API in the original mat sample, and thus the weight percent API in the electrospun mat was calculated. Three measurements were made per API and were averaged to give the reported value.

[2] = Polymorphism of API before and after electrospinning (XRD, DSC); details: free-surface electrospinning from PVP/ethanol suspension
Procedure: Scanning electron microscopy (SEM) was used to analyze the morphology of the fibers. A Quorum Technologies SC7640 high resolution gold/palladium sputter coater was used to coat the samples, and a JEOL 6060 SEM at 5 kV operating voltage was used to obtain images. Both X-ray diffraction (XRD) and differential scanning calorimetry (DSC) were used to confirm the presence of crystals and analyze the polymorph present in the electrospun fibers. XRD was performed on a PANalytical X′Pert Pro with a reflection-transmission spinner PW 3064/60 sample stage and a Cu X-ray source with a 1.54 Å wavelength. DSC was performed on a TA DSC Q2000 instrument using a 2-6 mg sample in an aluminum sample pan. The materials were heated at 10° C./min to 250° C. and 200° C. for ABZ and FAM, respectively.

[3] = USP dissolution test of compressed electrospun tablets vs compressed powder tablets; details: USP apparatus II, 50 rpm, 37° C., 900 mL; 0.1 N HCl for ABZ, 0.1 M Phosphate buffer for FAM; 150 mg 9 mm tablets, 1:2 API:PVP
Procedure: Powder tablets were prepared by weighing out 50 mg API powder and 100 mg PVP powder, mixing for 1 min, and pressing into 9 mm tablets using the same press with the same insertion depth. The electrospun tablets were compared to the compressed powder tablets for analysis. […] Dissolution was performed using a Varian VK 7025 dissolution bath (Agilent, Santa Clara, Calif.) and a Cary 50 Bio UV spectrophotometer (Agilent, Santa Clara, Calif.). For ABZ the standard USP methods were used with 900 mL 0.1 N HCl media, apparatus II, 50 rpm paddle speed and a temperature of 37° C. For FAM standard USP methods were used with 900 mL 0.1 M Phosphate buffer media, apparatus II, 50 rpm paddle speed, and a temperature of 37° C. Measurements were made every minute for 90 minutes by probes inserted in the bath and connected to the spectrophotometer by fiber optic cables.

Structure (SMILES): CCCSc1ccc2nc(NC(=O)OC)[nH]c2c1 [ABZ, albendazole]
- average loading of API in the electrospun fibers [1]: 31 wt %
- polymorphism of the API through the electrospinning process [2]: retained their polymorphism throughout processing; also recorded: not significantly affected
- dissolution amount, electrospun formulation relative to compressed powder tablet [3]: more than twice the dissolution amount

Structure (SMILES): NC(N)=Nc1nc(CSCCC(N)=NS(N)(=O)=O)cs1 [FAM, famotidine]
- average loading of API in the electrospun fibers [1]: 26 wt %
- polymorphism of the API through the electrospinning process [2]: retained their polymorphism throughout processing
- dissolution amount, electrospun formulation relative to compressed powder tablet [3]: more than twice the dissolution amount
